From patent US6448405B1, “Steroid receptor modulator compounds and methods” (Ligand Pharmaceuticals Incorporated, priority 1994, dated 2002)

Molecular target: T1, human PR-B (Homo sapiens, UniProt P06401)
T1 construct: expressed in transfected cells; host or cells: CV-1 cells (African green monkey kidney fibroblasts), transient transfection
T1 sequence (P06401 1-933): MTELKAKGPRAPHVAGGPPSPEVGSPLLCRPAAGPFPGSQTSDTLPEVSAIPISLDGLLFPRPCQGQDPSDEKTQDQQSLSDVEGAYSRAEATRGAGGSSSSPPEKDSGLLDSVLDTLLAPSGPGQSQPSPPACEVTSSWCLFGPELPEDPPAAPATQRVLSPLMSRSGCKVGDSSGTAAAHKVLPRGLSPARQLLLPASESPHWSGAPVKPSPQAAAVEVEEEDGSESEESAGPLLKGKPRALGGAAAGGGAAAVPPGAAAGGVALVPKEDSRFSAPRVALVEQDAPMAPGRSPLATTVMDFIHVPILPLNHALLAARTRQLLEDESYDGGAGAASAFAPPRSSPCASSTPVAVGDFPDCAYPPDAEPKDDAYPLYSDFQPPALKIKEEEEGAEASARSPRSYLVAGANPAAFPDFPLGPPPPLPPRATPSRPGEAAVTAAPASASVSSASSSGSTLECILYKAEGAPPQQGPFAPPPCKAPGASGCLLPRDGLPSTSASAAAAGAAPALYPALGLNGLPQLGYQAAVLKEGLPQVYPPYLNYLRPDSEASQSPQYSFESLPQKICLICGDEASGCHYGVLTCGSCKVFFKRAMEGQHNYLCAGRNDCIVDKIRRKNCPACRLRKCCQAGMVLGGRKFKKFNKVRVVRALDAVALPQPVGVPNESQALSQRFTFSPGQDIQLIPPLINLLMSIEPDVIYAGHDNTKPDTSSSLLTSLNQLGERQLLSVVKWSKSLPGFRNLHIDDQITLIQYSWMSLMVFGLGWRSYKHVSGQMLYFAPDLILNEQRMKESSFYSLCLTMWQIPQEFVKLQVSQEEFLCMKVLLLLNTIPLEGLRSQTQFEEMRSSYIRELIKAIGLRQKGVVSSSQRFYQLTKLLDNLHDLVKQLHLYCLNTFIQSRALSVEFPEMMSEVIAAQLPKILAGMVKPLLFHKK
Assay: Co-transfection assay, PR agonist and antagonist activity, CV-1 cells;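 note: luciferase reporter driven by a hormone response element, co-transfected with human PR-B into CV-1 monkey kidney cells, agonists raise and antagonists lower the reporter signal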
Type: cell-based
Conditions: for EC50: read-out: PR Agonist CV-1 Cells Potency; for PR Antagonist CV-1 Cells Efficacy (%): antagonist mode, progesterone at its EC50, % maximal inhibition; for IC50: read-out: PR Antagonist CV-1 Cells Potency

| Structure (SMILES) | EC50 (agonist mode) [nM] | PR Agonist CV-1 Cells Efficacy (%) (agonist mode, percent maximal response relative to reference agonist progesterone) | PR Antagonist CV-1 Cells Efficacy (%) | IC50 [nM] |
| --- | --- | --- | --- | --- |
| CC1=CC(C)(C)Nc2ccc3c(c21)C(c1ccccc1)Oc1ccccc1-3 (racemic) [Compound 161, (R/S)-1,2-Dihydro-2,2,4-trimethyl-5-phenyl-5H-chromeno[3,4-f]quinoline] | 203 | 47 | 75% | 209 |
| CC1=CC(C)(C)Nc2ccc3c(c21)C(c1cccc(C(F)(F)F)c1)Oc1ccccc1-3 (racemic) [Compound 195, (R/S) 1,2-Dihydro-2,2,4-trimethyl-5-[3-(trifluoromethyl)phenyl]-5H-chromeno[3,4-f]quinoline] | 13 |  | na (na = not active (i.e. efficacy or <20 and potency of >10,000)) | > 10000 |
